# Values of other authors in patent US20100008998A1, “SUBMICRON NANOPARTICLE OF POORLY WATER SOLUBLE CAMPTOTHECIN DERIVATIVES AND PROCESS FOR PREPARATION THEREOF” (SAMYANG CORPORATION, priority 2006, published 2010).
# Like-named read-outs stand apart in the source and are kept apart here.
# What was measured:
# [1] = biological target: T1, topoisomerase I (Homo sapiens, UniProt P11387)
# T1 sequence (P11387 1-765): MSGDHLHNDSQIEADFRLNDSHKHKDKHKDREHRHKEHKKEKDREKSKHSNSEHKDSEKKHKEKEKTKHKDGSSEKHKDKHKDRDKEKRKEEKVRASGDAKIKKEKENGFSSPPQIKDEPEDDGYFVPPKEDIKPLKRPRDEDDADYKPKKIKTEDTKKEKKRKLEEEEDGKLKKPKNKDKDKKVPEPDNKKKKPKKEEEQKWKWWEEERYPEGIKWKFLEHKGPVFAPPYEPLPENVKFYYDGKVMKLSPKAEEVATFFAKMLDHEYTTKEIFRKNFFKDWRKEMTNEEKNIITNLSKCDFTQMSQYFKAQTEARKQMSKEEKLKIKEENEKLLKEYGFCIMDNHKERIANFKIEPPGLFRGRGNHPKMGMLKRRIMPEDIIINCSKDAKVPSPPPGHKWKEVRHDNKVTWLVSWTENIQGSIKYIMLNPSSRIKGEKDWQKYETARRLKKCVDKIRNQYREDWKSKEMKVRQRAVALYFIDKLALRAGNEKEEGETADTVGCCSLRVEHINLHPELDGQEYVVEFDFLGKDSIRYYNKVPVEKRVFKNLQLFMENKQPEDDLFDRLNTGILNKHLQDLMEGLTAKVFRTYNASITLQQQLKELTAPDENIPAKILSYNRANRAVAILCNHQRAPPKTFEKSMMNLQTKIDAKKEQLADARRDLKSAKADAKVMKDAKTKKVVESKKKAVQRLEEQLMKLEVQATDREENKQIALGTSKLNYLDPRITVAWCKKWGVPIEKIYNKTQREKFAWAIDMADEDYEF
# [2] = not given; remark: listed apart in the source
# [3] = in the human body
conversion rate of CPT-11 into the active SN-38 [3] [%],Structure (SMILES),water solubility [µg/mL],water solubility (active lactone form) [µg/mL],can be dissolved in water in the amounts of (carboxy anion form) [mg/mL],better in suppressing the activity of topoisomerase I compared to CPT-11 [1],better in in vitro cytotoxicity compared to CPT-11 [2]
,"CCc1c2c(nc3ccc(O)cc13)-c1cc3c(c(=O)n1C2)COC(=O)[C@]3(O)CC [SN-38, 7-Ethyl-10-hydroxycamptothecin]",≤ 10,≤ 10,≥ 4,"≥ 1,000 times","≥ 2,000 times"
≤ 10,CCc1c2c(nc3ccc(OC(=O)N4CCC(N5CCCCC5)CC4)cc13)-c1cc3c(c(=O)n1C2)COC(=O)[C@]3(O)CC [CPT-11],,,,,
